Like-named read-outs stand apart in the source and are kept apart here.

In general, IC50 refers to the concentration needed to halve the response being measured.

One test has as its target T1, papain (Carica papaya, UniProt P00784).
T1 sequence (P00784 134-345): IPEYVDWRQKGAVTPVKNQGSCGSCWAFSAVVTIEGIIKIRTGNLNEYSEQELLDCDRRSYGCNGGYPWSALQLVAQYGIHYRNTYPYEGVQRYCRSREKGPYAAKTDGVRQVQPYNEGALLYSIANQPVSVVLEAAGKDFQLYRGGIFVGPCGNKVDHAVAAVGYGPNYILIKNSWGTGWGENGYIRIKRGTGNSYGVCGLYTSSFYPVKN
The test can be described thus: In vitro assay procedure for papain (inhibition). Type of test: biochemical. The protocol:
To a 170 μl of enzyme-buffer mixture (enzyme: papain, diluted to give 30 mOD/min, buffer: 0.2 M potassium phosphate, 1.0 mM EDTA, 5 mM L-Cysteine, pH 6.5) a 10 μL of inhibitor (dissolved in DMSO) was added. After 10 min of incubation at room temperature, a 20 μl of 10 mM substrate (N-CBZ-Pro-Phe-Arg-pNA, dissolved in DMSO) was added to initiate reaction. Reading is followed up for 3 min at the Thermomax plate reader (absorbance at 405 nm)
A plot of percentage of inhibition vs inhibitor concentration is obtained, and IC50 is determined using a linear regression calculations (concentration of inhibitor which will give 50% inhibition).

In the next test the target is cathepsin B (Rattus norvegicus, UniProt P00787). The test can be described thus: In vitro assay procedure for cathepsin B (inhibition). In kind it is biochemical.
cathepsin B, sequence (P00787 80-339): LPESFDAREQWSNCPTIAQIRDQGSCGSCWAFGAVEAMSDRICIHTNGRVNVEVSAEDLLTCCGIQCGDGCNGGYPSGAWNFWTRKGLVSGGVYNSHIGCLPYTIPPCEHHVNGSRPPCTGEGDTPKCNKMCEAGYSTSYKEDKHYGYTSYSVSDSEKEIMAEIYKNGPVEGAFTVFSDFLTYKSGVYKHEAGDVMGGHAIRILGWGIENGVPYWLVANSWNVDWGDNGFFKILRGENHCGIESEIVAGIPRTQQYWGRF
The mark [1] stands for this setting: rat cathepsin B, pH 5.1, 10 min incubation at room temperature, substrate N-CBZ-Phe-Arg-AMC, read-out: IC50 Cathepsin B.
Setting [2] is: pH 6.5, 10 min incubation at room temperature, substrate N-CBZ-Pro-Phe-Arg-pNA, read-out: IC50 Papain.

Procedure for cathepsin B: The compounds of formula I were tested for inhibition of cathepsin B using the known method (A. J. Barret et al., Biochem. J. 1982, 201, 189-198). […] After 10 min of incubation at room temperature, a 20 μl of 5 mM substrate (N-CBZ-Phe-Arg-AMC, dissolved in DMSO) was added to initiate reaction. Reading is followed up for 10 min at the fluoroscan reader (excitation at 380 nm, emission at 460 nm).

Take `O=C(O)CC1CN2C(=O)CC2O1` (stereo not shown): the IC50 against papain stood at 1.69 µM; on cathepsin B (setting [1]) it was 3.98 µM.

On to `O=C(N[C@@H](Cc1ccccc1)C(=O)OC[C@H]1CN2C(=O)C[C@@H]2O1)OCc1ccccc1` (mixture of isomers) [Example 4, (3RS,5SR)-3-{N-(benzyloxycarbonyl)-L-phenylalanyl}-oxymethyl-4-oxa-1-azabicyclo [3,2,0] heptan-7-one], for which the concentration for half-maximal inhibition (IC50) on papain (setting [2]) worked out at 0.24 µM; on cathepsin B (setting [1]) it was 0.59 µM.

Take `O=C(OC[C@H]1CN2C(=O)C[C@@H]2O1)[C@@H]1CCCN1C(=O)OCc1ccccc1` (mixture of isomers) [Example 5, (3RS,5SR)-3-{N-(benzyloxycarbonyl)-L-prolyl}-oxymethyl-4-oxa-1-azabicyclo[3,2,0] heptan-7-one]: the IC50 on papain (setting [2]) was found to be 0.49 µM; on cathepsin B (setting [1]), 0.44 µM.

Consider `CC[C@H](C)[C@H](NC(=O)OCc1ccccc1)C(=O)OC[C@H]1CN2C(=O)C[C@@H]2O1` (mixture of isomers) [Example 6, (3RS,5SR) -3-{N-(benzyloxycarbonyl)-L-isoleucyl}-oxymethyl-4-oxa-1-azabicyclo [3,2,0] heptan-7-one], for which the results for the IC50 at papain (setting [2]) and on cathepsin B (setting [1]) were 0.38 µM and 0.51 µM, respectively.

Turning to `O=C(CNC(=O)[C@H](Cc1ccccc1)NC(=O)OCc1ccccc1)OC[C@H]1CN2C(=O)C[C@@H]2O1` (mixture of isomers) [Example 7, (3RS,5SR)-3-{N-(benzyloxycarbonyl)-L-phenylalanyl-glycyl}-oxymethyl-4-oxa-1-azabicyclo [3,2,0] heptan-7-one], the IC50 at papain (setting [2]) was determined as 3.51 µM; at cathepsin B (setting [1]) it was 3.11 µM.

With `CC[C@H](C)[C@H](NC(=O)OCc1ccccc1)C(=O)N1CCC[C@H]1C(=O)OC[C@H]1CN2C(=O)C[C@@H]2O1` (mixture of isomers) [Example 8, (3RS, 5SR)-3-{N-(benzyloxycarbonyl)-L-isoleucyl-L-prolyl}-oxymethyl-4-oxa-1-azabicyclo [3,2,0] heptan-7-one], the IC50 came out at 0.74 µM on papain (setting [2]) and 4.5 µM on cathepsin B (setting [1]).

Turning to `CC(C)C[C@H](NC(=O)OCc1ccccc1)C(=O)N1CCC[C@H]1C(=O)OC[C@H]1CN2C(=O)C[C@@H]2O1` (mixture of isomers) [Example 9, (3RS, 5SR)-3-{N-(benzyloxycarbonyl)-L-leucyl-L-prolyl}-oxymethyl-4-oxa-1-azabicyclo [3,2,0] heptan-7-one], the figures for the concentration for half-maximal inhibition (IC50) on papain (setting [2]) and on cathepsin B (setting [1]) were 2.05 µM and 2.9 µM, respectively.

As to `O=C(OC[C@H]1CN2C(=O)C[C@@H]2O1)C1CCCCC1` (racemic) [Example 11, (3RS,5SR)-3-(cyclohexanecarbonyloxymethyl)-4-oxa-1-azabicyclo [3,2,0] heptan-7-one], the IC50 at papain (setting [2]) was 1 µM; on cathepsin B (setting [1]), 0.79 µM.

In the case of `O=C(OC[C@H]1CN2C(=O)C[C@@H]2O1)C1CCCC1` (racemic) [Example 12, (3RS,5SR)-3-(cyclopentanecarbonyloxymethyl)-4-oxa-1-azabicyclo [3,2,0] heptan-7-one], the IC50 at papain (setting [2]) turned out to be 1.13 µM; on cathepsin B (setting [1]) it was 0.66 µM.

As to `Cc1c(C(=O)NC[C@@H]2CN3C(=O)C[C@@H]3O2)c(=O)[nH]c2ccccc12` (racemic) [Example 16, (3RS, 5SR)-3-(1,2-dihydro-4-methyl-2-oxo-quinolin-3-yl)-carbonylaminomethyl-4-oxa-1-azabicyclo [3,2,0] heptan-7-one], the half-inhibitory concentration (IC50) at papain (setting [2]) came out at 0.7 µM; at cathepsin B (setting [1]) it was 4.2 µM.

As to `Cc1c(C(=O)OC[C@H]2CN3C(=O)C[C@@H]3O2)c(=O)[nH]c2ccccc12` (relative stereo) [Example 10, (3RS, 5SR)-3-(1,2-dihydro-4-methyl-2-oxo-guinolin-3-yl)-carbonyloxymethyl-4-oxa-1-azabicyclo [3,2,0] heptan-7-one], the IC50 on papain (setting [2]) worked out at 0.14 µM; on cathepsin B (setting [1]) it was 3.05 µM.

Take `O=C(/C=C/c1ccccc1)OC[C@H]1CN2C(=O)C[C@@H]2O1` (relative stereo) [Example 13, (3RS, 5SR)-3-(trans-3-phenylpropenoyl)oxymethyl-4-oxa-1-azabicyclo [3,2,0] heptan-7-one]: the IC50 is 0.45 µM at papain (setting [2]) and 4.06 µM at cathepsin B (setting [1]).

Regarding `Cn1c2nc(=O)[nH]c(=O)c-2nc2cc(C(=O)OC[C@H]3CN4C(=O)C[C@@H]4O3)ccc21` (relative stereo) [Example 14, (3RS, 5SR)-3-(10-methylisoalloxazin-7-yl)-carbonyloxy methyl-4-oxa-1-azabicyclo [3,2,0] heptan-7-one], the figures for the IC50 at papain (setting [2]) and on cathepsin B (setting [1]) were 0.76 µM and 16.9 µM, respectively.

`CCOC(=O)c1ccc2c(c1)nc1c(=O)n(C[C@H]3CN4C(=O)C[C@@H]4O3)c(=O)nc-1n2C` (relative stereo) [Example 15, (3RS, 5SR)-3-(7-ethoxycarbonyl-10-methylisoalloxazin-3-yl) -methyl-4-oxa-1-azabicyclo [3,2,0] heptan-7-one]: the half-inhibitory concentration (IC50) on papain (setting [2]) was found to be 1.24 µM; on cathepsin B (setting [1]), 2.89 µM.

Take `CC(C)(C)[Si](C)(C)OC[C@H]1CN2C(=O)C[C@@H]2O1` [Example 1A, (3R, 5S)-3-(tert-butyldimethylsilyl)oxymethyl-4-oxa-1-azabicyclo [3,2,0] heptan-7-one]: the results for the IC50 on papain (setting [2]) and against cathepsin B were 0.16 µM and 0.778 µM, respectively.

For the compound `CC(C)(C)[Si](C)(C)OC[C@H]1CN2C(=O)C[C@H]2O1` [Example 1B, (3R, 5R)-3-(tert-butyldimethylsilyl)oxymethyl-4-oxa-1-azabicyclo [3,2,0] heptan-7-one], the IC50 on papain (setting [2]) was 3.1 µM; at cathepsin B, 7.78 µM.

Consider `O=C1C[C@@H]2O[C@@H](CO)CN12` [Example 2, (3R, 5S)-3-hydroxymethyl-4-oxa-1-azabicyclo[3,2,0] heptan-7-one], for which the results for the half-maximal inhibitory concentration (IC50) on papain (setting [2]) and on cathepsin B (setting [1]) were 2.03 µM and 5 µM, respectively.

Regarding `CC(=O)NC[C@H]1CN2C(=O)C[C@@H]2O1` [Example 3, (3S,5S)-3-(N-acetylamino)methyl-4-oxa-1-azabicyclo [3,2,0] heptan-7-one], the IC50 on papain (setting [2]) amounted to 0.59 µM; on cathepsin B (setting [1]), 0.56 µM.

Turning to `O=C1C[C@@H]2O[C@@H](Cn3ccnn3)CN12` [Example 17, (3R,5S)-3-(1,2,3-triazol-1-yl)-methyl-4-oxa-1-azabicyclo [3,2,0] heptan-7-one], the IC50 against papain and at cathepsin B (setting [1]) was 0.29 µM in each case.

`O=C(CC1CN2C(=O)CC2O1)OC(c1ccccc1)c1ccccc1` (stereo not shown) [Example 18, diphenylmethyl 2-(7-oxo-4-oxa-1-azabicyclo [3,2,0]heptan-3-yl)-acetate]: the figures for the IC50 on papain (setting [2]) and at cathepsin B (setting [1]) were 2.08 µM and 2.97 µM, respectively.

Turning to `O=C(OCc1ccccc1)[C@@H]1CCCN1C(=O)CC1CN2C(=O)CC2O1` (stereo partly drawn) [Example 20, N-{(7-oxo-4-oxa-1-azabicyclo [3,2,0]heptan-3-yl)-methylcarbonyl} L-proline benzyl ester], the half-maximal inhibitory concentration (IC50) on papain (setting [2]) was 0.56 µM; on cathepsin B (setting [1]), 13.7 µM.

Take `NC(CC(=O)O)C(=O)NCC1CN2C(=O)CC2O1` (stereo not shown) [Example 21]: the IC50 is over 20 µM at papain (setting [2]) and 12.6 µM at cathepsin B (setting [1]).

Take `NC(CC(=O)O)C(=O)OCC1CN2C(=O)CC2O1` (stereo not shown) [Example 22]: the IC50 at papain (setting [2]) and at cathepsin B (setting [1]) was over 20 µM each time.

On to `O=C(N[C@@H](Cc1ccccc1)C(=O)NCC1CN2C(=O)CC2O1)OCc1ccccc1` (stereo partly shown) [Example 23], for which the half-maximal inhibitory concentration (IC50) at papain (setting [2]) stood at 0.35 µM; at cathepsin B (setting [1]), 2.4 µM.

Consider `NC(CCC(=O)OCC1CN2C(=O)CC2O1)C(=O)O` (stereo not shown) [Example 24], for which the IC50 is 2.92 µM on papain (setting [2]) and 12 µM on cathepsin B (setting [1]).

As for `CC(N)C(=O)OCC1CN2C(=O)CC2O1` (stereo not shown) [Example 25], the IC50 at papain (setting [2]) was 3.31 µM; at cathepsin B (setting [1]), over 20 µM.

For the compound `CC(N)C(=O)NCC1CN2C(=O)CC2O1` (stereo not shown) [Example 26], the IC50 was 2.91 µM on papain (setting [2]) and over 20 µM on cathepsin B (setting [1]).

For `O=C(CCl)NCC1CN2C(=O)CC2O1` (stereo not shown) [Example 27], the IC50 at papain (setting [2]) came out at 0.9 µM; at cathepsin B (setting [1]) it was 0.4 µM.

Take `O=C1CC2OC(CNC(=O)C(F)(F)F)CN12` (stereo not shown) [Example 28]: the IC50 turned out to be 0.84 µM on papain (setting [2]) and 0.33 µM on cathepsin B (setting [1]).

Turning to `O=C(O)C[S+]([O-])CC1CN2C(=O)CC2O1` (stereo not shown) [Example 29], the values for the IC50 at papain (setting [2]) and on cathepsin B (setting [1]) were 3.9 µM and 0.38 µM, respectively.

On to `CC(C)C(=O)NCC1CN2C(=O)CC2O1` (stereo not shown) [Example 30], for which the IC50 came out at 0.95 µM on papain (setting [2]) and 0.46 µM on cathepsin B (setting [1]).

Take `CC(=O)NCC(=O)NCC1CN2C(=O)CC2O1` (stereo not shown) [Example 31]: the figures for the IC50 on papain (setting [2]) and at cathepsin B (setting [1]) were 4.1 µM and 2.6 µM, respectively.

`CCCCCC(=O)NCC1CN2C(=O)CC2O1` (stereo not shown) [Example 32]: the IC50 on papain (setting [2]) and on cathepsin B (setting [1]) was 2.3 µM in each case.

`CS(=O)(=O)NCC1CN2C(=O)CC2O1` (stereo not shown) [Example 33]: the results for the IC50 on papain (setting [2]) and at cathepsin B (setting [1]) were 0.91 µM and 0.95 µM, respectively.

Consider `CC(=O)NCC[S+]([O-])CC1CN2C(=O)CC2O1` (stereo not shown) [Example 34], for which the IC50 is 3.8 µM on papain (setting [2]) and 14.6 µM on cathepsin B (setting [1]).

On to `O=C(O)CS(=O)(=O)CC1CN2C(=O)CC2O1` (stereo not shown) [Example 35], for which the IC50 on papain (setting [2]) was 12.9 µM; at cathepsin B (setting [1]), 0.74 µM.

In the case of `CCCCCCCCCCCCCCCC(=O)OCC1CN2C(=O)CC2O1` (stereo not shown) [Example 36], the IC50 at papain (setting [2]) and at cathepsin B (setting [1]) was over 50 µM each time.

`O=C(O)C=CC(=O)OCC1CN2C(=O)CC2O1` (stereo not shown) [Example 37]: the 50% inhibitory concentration (IC50) is 19 µM at papain (setting [2]) and 1.9 µM on cathepsin B (setting [1]).

The record behind these values is patent publication US5925633A, “3-Substituted-4-oxa-1-azabicyclo [3,2,0]heptan-7-one as cysteine protease inhibitors” (Synphar Laboraties, Inc., priority 1996, dated 1999).
